# In patent US20140093513A1, “METHODS OF LOWERING PROPROTEIN CONVERSATE SUBTILISIN/KEXIN TYPE 9 (PCSK9)” (Catabasis Pharmaceuticals, Inc., priority 2012, published 2014):
# Tested on: PCSK9
# Experiment: PCSK9 secretion assay in HepG2 cells (PCSK9 ELISA)
# Type: cell-based
# Conditions: HepG2 cells, 16 hours incubation, at least 6 concentrations
# Procedure: HepG2 cells (from ATCC, Catalog no. HB-8065) were maintained in DMEM (Invitrogen) supplemented with 10% fetal bovine serum (Invitrogen). The day prior to the PCSK9 assay, cells are seeded in 96-well collagen coated plates at 25,000 cells/well.
# The compounds of the invention were stored at −20° C. until used. The test article compound was dissolved in 100% ethanol to a 50 mM stock solution. This was then diluted in FBS to a final concentration of 1 mM. This solution was placed in a sonicating water bath for 30 minutes. Subsequent dilutions were then made in FBS supplemented with an equivalent volume of ethanol and mixed by vortexing.
# HepG2 cells were seeded onto a collagen coated 96-well plate (Becton Dickinson, Catalog no. 35-4407) the day prior to the assay, as described above. The next day, the cell medium was removed, washed once with 100 μL serum free DMEM to remove any residual PCSK9, and replaced with 90 μL of serum free DMEM. Ten microliters of each compound concentration prepared in FBS was then added. Each concentration of compound was tested in triplicate. The compound was incubated with the cells overnight for 16 hours. Following this incubation, 10 μL of AlamarBlue was added to each well and cells incubated for another 2 hours. The plates were then removed and AlamarBlue fluorescence was measured (excitation, 550 nm and […]) to assess cell viability. Cell culture supernatant was then diluted […] 1×RDSP Calibrator Diluent and PCSK9 ELISA was then performed with 50 μL of this diluted sample, as per the manufacturer's instructions. The ELISA was measured on a Victor X5 multilabel plate reader (PerkinElmer) at an absorbance of 450 nm with background correction measured at 550 nm (The PCSK9 Elisa kits can be purchased from R&D System, Catalog no. DPC900).
# Alternatively, an IC50 could also be obtained when this type of assay was carried out using at least 6 different concentrations of the test compounds. Table 1 lists the IC50 values for the compounds tested in this assay.
row,Structure (SMILES),IC50 [µM]
1,"CC/C=C\C/C=C\C/C=C\C/C=C\C/C=C\C/C=C\CCC(=O)NCCNC(=O)c1cccnc1 [Compound I-7, N-(2-(4Z,7Z,10Z,13Z,16Z,19Z)-docosa-4,7,10,13,16,19-hexaenamidoethyl)nicotinamide]",< 25
2,"CC/C=C\C/C=C\C/C=C\C/C=C\C/C=C\CCCC(=O)NCCNC(=O)c1ccncc1 [II-8, N-(2-((5Z,8Z,11Z,14Z,17Z)-icosa-5,8,11,14,17-pentaenamido)ethyl)isonicotinamide]",> 50
3,"CC/C=C\C/C=C\C/C=C\C/C=C\C/C=C\CCCC(=O)N1CCC(NC(=O)c2cccnc2)CC1 [Compound I-22, N-(1-((5Z,8Z,11Z,14Z,17Z)-icosa-5,8,11,14,17-pentaenoyl)piperidin-4-yl)nicotinamide]",< 25
4,"CC/C=C\C/C=C\C/C=C\C/C=C\C/C=C\CCCC(=O)NCCNC(=O)c1ccccc1 [II-1, N-(2-((5Z,8Z,11Z,14Z,17Z)-icosa-5,8,11,14,17-pentaenamido)ethyl)benzamide]",25 to 50
5,"CC/C=C\C/C=C\C/C=C\C/C=C\C/C=C\CCCC(=O)NC1CCN(C(=O)c2cccnc2)CC1 [Compound I-28, (5Z,8Z,11Z,14Z,17Z)—N-(1-nicotinoylpiperidin-4-yl)icosa-5,8,11,14,17-pentaenamide]",< 25
6,"CC/C=C\C/C=C\C/C=C\C/C=C\C/C=C\CCCC(=O)Nc1nc(C)ncc1CNC(=O)c1cccnc1 [Compound I-64, N-((4-((5Z,8Z,11Z,14Z,17Z)-icosa-5,8,11,14,17-pentaenamido)-2-methylpyrimidin-5-yl)methyl)nicotinamide]",25 to 50
7,"CC/C=C\C/C=C\C/C=C\C/C=C\C/C=C\CCCC(=O)NCCNC(=O)c1cncc(O)c1 [VI-5, 5-hydroxy-N-(2-((5Z,8Z,11Z,14Z,17Z)-icosa-5,8,11,14,17-pentaenamido)ethyl)nicotinamide]",25 to 50
8,"CC/C=C\C/C=C\C/C=C\C/C=C\C/C=C\CCCC(=O)NCCNC(=O)C(C)(C)Oc1ccc(Cl)cc1 [II-33, (5Z,8Z,11Z,14Z,17Z)—N-(2-(2-(4-chlorophenoxy)-2-methylpropanamido)ethyl)icosa-5,8,11,14,17-pentaenamide]",< 25
9,CC/C=C\C/C=C\C/C=C\C/C=C\C/C=C\C/C=C\CCC(=O)NCCN(C)CCNC(=O)c1cccnc1 [Compound I-2],< 25
10,"CC/C=C\C/C=C\C/C=C\C/C=C\C/C=C\CCCC(=O)NCCNC(=O)CCNC(=O)c1cccnc1 [Compound I-26, N-(3-((2-((5Z,8Z,11Z,14Z,17Z)-icosa-5,8,11,14,17-pentaenamido)ethyl)amino)-3-oxopropyl)nicotinamide]",25 to 50
11,"CC/C=C\C/C=C\C/C=C\C/C=C\C/C=C\CCCC(=O)N[C@H]1CC[C@H](CNC(=O)c2cccnc2)CC1 [Compound I-41, N-(((1R,4R)-4-((5Z,8Z,11Z,14Z,17Z)-icosa-5,8,11,14,17-pentaenamido)cyclohexyl)methyl)nicotinamide]",< 25
12,"CC/C=C\C/C=C\C/C=C\C/C=C\C/C=C\CCCC(=O)NC[C@@H]1CCCN1C(=O)c1cccnc1 [Compound I-32, (5Z,8Z,11Z,14Z,17Z)—N—(((S)-1-nicotinoylpyrrolidin-2-yl)methyl)icosa-5,8,11,14,17-pentaenamide]",< 25
13,"CC/C=C\C/C=C\C/C=C\C/C=C\C/C=C\CCCC(=O)NCCNC(=O)c1ccncn1 [II-10, N-(2-((5Z,8Z,11Z,14Z,17Z)-icosa-5,8,11,14,17-pentaenamido)ethyl)pyrimidine-4-carboxamide]",> 50
14,"CC/C=C\C/C=C\C/C=C\C/C=C\C/C=C\CCCC(=O)NCCNC(=O)c1cnccn1 [II-11, N-(2-((5Z,8Z,11Z,14Z,17Z)-icosa-5,8,11,14,17-pentaenamido)ethyl)pyrazine-2-carboxamide]",> 50
15,"CC/C=C\C/C=C\C/C=C\C/C=C\C/C=C\CCCC(=O)NCCNC(=O)c1ccc(=O)n(C)c1 [II-7, N-(2-((5Z,8Z,11Z,14Z,17Z)-icosa-5,8,11,14,17-pentaenamido)ethyl)-1-methyl-6-oxo-1,6-dihydropyridine-3-carboxamide]",> 50
16,"CC/C=C\C/C=C\C/C=C\C/C=C\C/C=C\CCCC(=O)NCCNC(=O)[C@@H](NC(=O)c1cccnc1)C(C)C [Compound I-25, N—((S)-1-((2-((5Z,8Z,11Z,14Z,17Z)-icosa-5,8,11,14,17-pentaenamido)ethyl)amino)-3-methyl-1-oxobutan-2-yl)nicotinamide]",25 to 50
17,"CC/C=C\C/C=C\C/C=C\C/C=C\C/C=C\CCCC(=O)NC[C@H]1CCCN1C(=O)c1cccnc1 [Compound I-33, (5Z,8Z,11Z,14Z,17Z)—N—(((R)-1-nicotinoylpyrrolidin-2-yl)methyl)icosa-5,8,11,14,17-pentaenamide]",< 25

# More lines, now with the values ahead:
row,IC50 [µM],Structure (SMILES)
1,25 to 50,"CC/C=C\C/C=C\C/C=C\C/C=C\C/C=C\CCCC(=O)N1CCC[C@H]1CNC(=O)c1cnc(C)c[n+]1[O-] [VII-14, 2-((((S)-1-((5Z,8Z,11Z,14Z,17Z)-icosa-5,8,11,14,17-pentaenoyl)pyrrolidin-2-yl)methyl)carbamoyl)-5-methylpyrazine 1-oxide]"
2,< 25,"CC/C=C\C/C=C\C/C=C\C/C=C\C/C=C\CCCC(=O)N1CC[C@H](N(C)C(=O)c2cnc(C)c[n+]2[O-])C1 [VII-17, 2-(((S)-1-((5Z,8Z,11Z,14Z,17Z)-icosa-5,8,11,14,17-pentaenoyl)pyrrolidin-3-yl)(methyl)carbamoyl)-5-methylpyrazine 1-oxide]"
3,> 50,"CC/C=C\C/C=C\C/C=C\C/C=C\C/C=C\CCCC(=O)N1CC[C@@H](NC(=O)c2cnc(C)c[n+]2[O-])C1 [VII-11, 2-(((R)-1-((5Z,8Z,11Z,14Z,17Z)-icosa-5,8,11,14,17-pentaenoyl)pyrrolidin-3-yl)carbamoyl)-5-methylpyrazine 1-oxide]"
4,< 25,"CC/C=C\C/C=C\C/C=C\C/C=C\C/C=C\CCCC(=O)N1CC[C@@H](NC(=O)C2=CC(=O)C(C)(c3ccccc3)O2)C1 (stereo partly drawn) [VII-3, N—((R)-1-((5Z,8Z,11Z,14Z,17Z)-icosa-5,8,11,14,17-pentaenoyl)pyrrolidin-3-yl)-5-methyl-4-oxo-5-phenyl-4,5-dihydrofuran-2-carboxamide]"
5,25 to 50,"CC/C=C\C/C=C\C/C=C\C/C=C\C/C=C\CCCC(=O)Nc1nc(C)ncc1CNC(=O)C(C)(C)Oc1ccc(C(=O)c2ccc(Cl)cc2)cc1 [VII-41, (5Z,8Z,11Z,14Z,17Z)—N-(5-((2-(4-(4-chlorobenzoyl)phenoxy)-2-methylpropanamido)methyl)-2-methylpyrimidin-4-yl)icosa-5,8,11,14,17-pentaenamide]"
6,< 25,"CC/C=C\C/C=C\C/C=C\C/C=C\C/C=C\CCCC(=O)N1CCC(CNC(=O)C2=CC(=O)C(C)(c3ccccc3)O2)CC1 (stereo not drawn) [VII-2, N-((1-((5Z,8Z,11Z,14Z,17Z)-icosa-5,8,11,14,17-pentaenoyl)piperidin-4-yl)methyl)-5-methyl-4-oxo-5-phenyl-4,5-dihydrofuran-2-carboxamide]"
7,< 25,"CC/C=C\C/C=C\C/C=C\C/C=C\C/C=C\CCCC(=O)N1CCC(NC(=O)C2=CC(=O)C(C)(c3ccccc3)O2)CC1 (stereo not drawn) [VII-1, N-(1-((5Z,8Z,11Z,14Z,17Z)-icosa-5,8,11,14,17-pentaenoyl)piperidin-4-yl)-5-methyl-4-oxo-5-phenyl-4,5-dihydrofuran-2-carboxamide]"
8,< 25,"CC/C=C\C/C=C\C/C=C\C/C=C\C/C=C\CCCC(=O)N1CCC(CNC(=O)c2cnc(C)c[n+]2[O-])CC1 [VII-10, 2-(((1-((5Z,8Z,11Z,14Z,17Z)-icosa-5,8,11,14,17-pentaenoyl)piperidin-4-yl)methyl)carbamoyl)-5-methylpyrazine 1-oxide]"
9,< 25,"CC/C=C\C/C=C\C/C=C\C/C=C\C/C=C\CCCC(=O)N1CC[C@H](CNC(=O)C2=CC(=O)C(C)(c3ccccc3)O2)C1 (stereo partly drawn) [VII-5, N—(((R)-1-((5Z,8Z,11Z,14Z,17Z)-icosa-5,8,11,14,17-pentaenoyl)pyrrolidin-3-yl)methyl)-5-methyl-4-oxo-5-phenyl-4,5-dihydrofuran-2-carboxamide]"
10,25 to 50,"CC/C=C\C/C=C\C/C=C\C/C=C\C/C=C\CCCC(=O)N1CCC(CN(C)C(=O)c2cnc(C)c[n+]2[O-])CC1 [VII-16, 2-(((1-((5Z,8Z,11Z,14Z,17Z)-icosa-5,8,11,14,17-pentaenoyl)piperidin-4-yl)methyl)(methyl)carbamoyl)-5-methylpyrazine 1-oxide]"
11,< 25,"CC/C=C\C/C=C\C/C=C\C/C=C\C/C=C\CCCC(=O)N1CCC(NC(=O)c2c[n+]([O-])cc(C)n2)CC1 [VII-15, 3-((1-((5Z,8Z,11Z,14Z,17Z)-icosa-5,8,11,14,17-pentaenoyl)piperidin-4-yl)carbamoyl)-5-methylpyrazine 1-oxide]"

# Same assay, conditions: HepG2 cells, at 25 and 50 μM, FIG. 1
row,Structure (SMILES),lowering of PCSK9
1,"CC/C=C\C/C=C\C/C=C\C/C=C\C/C=C\CCCC(=O)NCCNC(=O)c1ccccc1 [II-1, N-(2-((5Z,8Z,11Z,14Z,17Z)-icosa-5,8,11,14,17-pentaenamido)ethyl)benzamide]",significant lowering of PCSK9

# Same assay, conditions: HepG2 cells, highest tested concentration of 50 μM, FIG. 1
row,Structure (SMILES),activity toward PCSK9
1,"CC/C=C\C/C=C\C/C=C\C/C=C\C/C=C\CCCC(=O)NCCNC(C)=O [Compound A, (5Z,8Z,11Z,14Z,17Z)—N-(2-acetamidoethyl)icosa-5,8,11,14,17-pentaenamide, reference compound]",essentially no activity
